# Read-outs that look alike come from different tables or passages of the source.
# Columns and labels:
# [1] = Cytotoxicity in MT-2 cells, flow cytometry cell counts and viability; assay type: cell-based, human; settings: human; MT-2 cells, 72 hrs
# Description: (§1) MT-2 cells were incubated with drug for 72 hrs and harvested. Flow count beads (Beckman Coulter, Miami, Fla.) were added to the cell suspension followed by propidium iodide staining and analysis using flow cytometer and the 50% cytotoxic concentration (CC50) was calculated from the cell counts and viability.
# MT-2 cells = experiment: as above; assay type: cell-based, human; settings: Homo sapiens, MT2, 72 h, read-out: CC50, 50% Cytotoxic concentration MT2 cells T cell leukemia
# Description: as §1
# [2] = Effect of oral compounds on body weight in Balb-c mice; assay type: in vivo
# Description: Compounds were administered at the indicated doses by oral gavage daily for 5 days. Weights measured before and on day 6 after 5 doses.
# HPV-11 = HPV-11 origin replication in HEK 293 cells, qPCR; assay type: cell-based; settings: for EC50: HEK293, HPV-11 origin replication in HEK 293 cells, 48 hr, qPCR; for Selectivity Index: HPV-11, HEK 293 cells
# Description: (§2) An origin-containing plasmid was co-transfected with HPV-11 E1 and E2 protein expression vectors into HEK 293 cells. At 4 hr post-transfection, cells were treated with compound dilutions and the cells were incubated for 48 hr. Replication of the virus origin was detected with DpnI and exonuclease III to remove unreplicated input bacterial plasmid DNA. Remaining replicated DNA was quantified by qPCR. Toxicity was determined by trypan blue exclusion.
# [3] = Toxicity in HEK 293 cells by trypan blue exclusion (HPV-11 example); assay type: cell-based; settings: human
# Description: as §2
# HPV-16 = HPV-16 origin replication in HEK 293 cells, qPCR; assay type: cell-based; settings: for EC50: HEK293, HPV-16 origin replication in HEK 293 cells, 48 hr, qPCR, read-out: EC50; for Selectivity Index: HPV-16, HEK 293 cells
# Description: as §2, with “HPV-16” for “HPV-11”
# [4] = Toxicity in HEK 293 cells by trypan blue exclusion (HPV-16 example); assay type: cell-based; settings: human
# Description: as §2, with “HPV-16” for “HPV-11”
# in vitro [5] = settings: human
# HIV-1LAI = experiment: HIV antiviral assay in MT-2 cells, p24 reduction; settings: for EC50: Human immunodeficiency virus 1, MT2, 96 h
# [6] = Cytotoxicity in 2.2.15 cells by neutral red uptake; settings: human
# [7] = Cytotoxicity in HFF cells in parallel to HSV-1 assay; settings: human
# [8] = African green monkey
# Hepatitis B virus = experiment: HBV replication in 2.2.15 cells, HBV DNA blot hybridization; settings: for EC50: Hepatitis B virus, 168 h; for Selectivity Index: hepatitis B virus, 2.2.15 cells
# [9] = Cytotoxicity in HFF cells in parallel to cytomegalovirus assay; settings: human
# MAD-1 strain of JC virus = experiment: Antiviral effect in JC virus (MAD-1) infected COS7 cells, qPCR; settings: for EC50: JC polyomavirus, COS-7, 168 h; for Selectivity Index: JC virus (MAD-1), COS7 cells
# [10] = Antiproliferative activity, neutral red, normal human fibroblasts
# [11] = Toxicity in primary human keratinocyte raft cultures by histology
# Hela (HPV-18) = experiment: Antiproliferative activity, neutral red, Hela cervical cancer cells; settings: Homo sapiens, 96 h, read-out: Cytotoxic concentration 50% (CC50) Hela (HPV-18)
# Caski (HPV-16) = experiment: Antiproliferative activity, neutral red, Caski cervical cancer cells; settings: for CC50: Homo sapiens, Ca-Ski, 96 h, read-out: Cytotoxic concentration 50% (CC50) Caski (HPV-16)
# [12] = human
# HIV-192US727 = experiment: Anti-HIV assay in human PBMC, supernatant reverse transcriptase activity; settings: for Selectivity Index: HIV-192US727, human PBMC; for EC50: Human immunodeficiency virus 1, PBMC, 168 h
# [13] = tested on: AD169 strain of human cytomegalovirus; experiment: Antiviral effect in HFF cells infected with human cytomegalovirus (AD169); settings: for EC50: Human betaherpesvirus 5, AD169, HFF, 336 h; for Selectivity Index: human cytomegalovirus (AD169), HFF cells
# HPV-18 = experiment: Antiviral effect in HPV-18 infected primary human keratinocyte rafts, qPCR; settings: for Selectivity Index: HPV-18 keratinocyte rafts; for EC50: Homo sapiens, Keratinocyte
# [14] = tested on: BK virus (Gardner strain); experiment: Antiviral effect in HFF cells infected with BK virus (Gardner strain), qPCR; settings: for Selectivity Index: BK virus (Gardner strain), HFF cells; for EC50: Betapolyomavirus hominis, HFF, 336 h
# [15] = tested on: Copenhagen strain of vaccinia virus; experiment: microbe, parasite or virus in culture; assay type: cell-based
# in vitro [16] = settings: human; remark: listed apart in the source
# [17] = Viability of PBMC by XTT reduction; settings: human, PHA-stimulated human PBMCs
# [18] = Cytotoxicity in HFF cells in parallel to HSV-2 assay; settings: human, […]
Structure (SMILES),CC50 at 72 h [1] [nM],EC50 (HPV-11) [nM],Selectivity Index (HPV-11),CC50 at 48 h [3] [nM],EC50 (HPV-16) [nM],Selectivity Index (HPV-16),EC50 (HIV-1LAI) [nM],CC50 at 7 days [6] [nM],EC50 (Hepatitis B virus) [nM],Selectivity Index (Hepatitis B virus),EC50 (MAD-1 strain of JC virus) [nM],Selectivity Index (MAD-1 strain of JC virus),CC50 [11] [nM],CC50 (Hela (HPV-18)) [nM],CC50 (Caski (HPV-16)) [nM],CC50 at 14 days [12] [nM],Selectivity Index (HIV-192US727),EC50 (HIV-192US727) [nM],EC50 [13] [nM],Selectivity Index [13],other results
"CCCCCCCCCCCCCCCCCCOCCOP(=O)(COCCn1cnc2c(=O)[nH]c(N)nc21)OCc1ccccc1 (racemic) [Compound 1, benzyl octadecyloxyethyl 9-(2-phosphonomethoxyethyl)guanine]",36 ± 40,490,>204,> 100000,200,>50,< 0.01,> 100000,440,>226,70,911,10000,9,4,3060,>4.0,< 10,< 30,>1717,"CC50 (MT-2 cells): 36 ± 40 nM; body weight Day 6 ([2]; 4 mg/kg/day oral gavage daily for 5 days): 18.42 ± 1.00 (3); body weight Day 0 ([2]; 4 mg/kg/day oral gavage, before dosing): 18.63 ± 0.728 (3); CC50 [4]: > 10000 nM; CC50 (in vitro [5]): 40 nM; Selectivity Index (HIV-1LAI; CC50/EC50, MT-2 cells): >3600; CC50 at 3 days [7]: > 100000 nM; CC50 at 7 days [8]: 63800 nM; CC50 at 14 days [9]: 51500 nM; CC50 at 4 days [10]: 15000 nM; fold more effective in reducing viable cell number in the cervical cancer lines than in normal, non-transformed human fibroblasts (Caski (HPV-16); cervical cancer lines (Caski, Hela) vs HFF): 3,750 fold; Selectivity Index (HPV-18): 48; EC50 (HPV-18): 210 nM; Selectivity Index [14]: >102; EC50 [14]: < 30 nM"
"CCCCCCCCCCCCCCCCCCOCCOP(=O)(CO[C@H](CO)Cn1cnc2c(N)ncnc21)OCc1ccccc1 (stereo partly drawn) [Compound 218, benzyl octadecyloxyethyl 9-(S)-[3-hydroxy-2-(phosphonomethoxy)propyl] adenine]",2300 ± 1600,770,>370,> 100000,240,>41.7,130 ± 140,> 100000,760,>132,> 4000,<2.6,> 10000,29,55,2800,>23.0,< 10,< 30,>250,"EC50 ([15]; Orthopoxvirus vaccinia, HFF, 168 h): < 30 nM; Selectivity Index ([15]; vaccinia virus (Copenhagen), HFF cells): >3330; CC50 at 48 h [4]: > 10000 nM; CC50 (in vitro [16]): > 100000 nM; CC50 at 7 days [17]: 230 nM; CC50 at 3 days [18]: 6910 nM; CC50 at 3 days ([7]; […]): 14500 nM; CC50 at 7 days ([8]; uninfected COS7 cells): 10200 nM; CC50 at 14 days ([9]; […]): 7490 nM; CC50 at 4 days ([10]; normal human fibroblasts (HFF), monolayer culture): 5200 nM; Selectivity Index (HPV-18): >39; EC50 (HPV-18): 250 nM; Selectivity Index [14]: >93; EC50 [14]: < 30 nM"
